Laboratory results reported in BindingDB's records for patent US20250313563 (The Broad Institute, 2025).
Values joined by “and” are separate entries in the source; they are usually repeats but may differ in a detail not shown here. Equal values may be shown once.

Assays:
[1] = target: Glycogen synthase kinase-3 beta (Homo sapiens, UniProt P49841); experiment: TR-FRET Assay
Experimental: (§1) The assay was performed in a white, 384 well, low volume, flat bottom plate (Grenier). […] The kinase activity was quenched with 2 μL of 250 mM EDTA. A 10 μL volume of 40 nM Strepavidin-d2, 2 nM Tb2+-pSer641 antibody in TR-FRET Detection Buffer (Invitrogen) was then added.

[2] = target: Glycogen synthase kinase-3 alpha (Homo sapiens, UniProt P49840); experiment: TR-FRET Assay
Chain of Glycogen synthase kinase-3 alpha (P49840 whole entry): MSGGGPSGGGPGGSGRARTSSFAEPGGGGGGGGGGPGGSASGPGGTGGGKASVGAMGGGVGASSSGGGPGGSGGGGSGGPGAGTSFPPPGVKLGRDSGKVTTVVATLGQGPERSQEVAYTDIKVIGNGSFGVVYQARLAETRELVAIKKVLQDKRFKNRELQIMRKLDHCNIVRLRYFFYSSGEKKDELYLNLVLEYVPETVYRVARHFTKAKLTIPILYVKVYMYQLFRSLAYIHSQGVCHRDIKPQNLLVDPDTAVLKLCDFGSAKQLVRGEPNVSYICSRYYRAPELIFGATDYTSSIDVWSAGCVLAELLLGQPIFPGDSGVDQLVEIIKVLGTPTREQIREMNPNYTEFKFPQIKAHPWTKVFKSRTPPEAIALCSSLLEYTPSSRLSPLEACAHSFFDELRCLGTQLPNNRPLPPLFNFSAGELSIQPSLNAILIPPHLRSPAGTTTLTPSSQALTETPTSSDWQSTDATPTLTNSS
Experimental: as §1

Chain of Glycogen synthase kinase-3 beta (P49841 whole entry): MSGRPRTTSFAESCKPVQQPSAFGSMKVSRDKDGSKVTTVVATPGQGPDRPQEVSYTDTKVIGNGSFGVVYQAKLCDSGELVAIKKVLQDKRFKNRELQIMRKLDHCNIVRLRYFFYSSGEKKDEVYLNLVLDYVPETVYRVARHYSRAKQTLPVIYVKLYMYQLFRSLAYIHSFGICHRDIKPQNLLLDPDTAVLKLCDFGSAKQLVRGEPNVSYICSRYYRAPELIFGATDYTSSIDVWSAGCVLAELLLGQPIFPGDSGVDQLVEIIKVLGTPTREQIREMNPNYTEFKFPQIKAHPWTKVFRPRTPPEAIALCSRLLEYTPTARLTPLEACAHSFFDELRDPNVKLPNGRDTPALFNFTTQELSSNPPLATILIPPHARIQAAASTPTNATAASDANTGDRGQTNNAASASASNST

Row | IC50 [1] | IC50 [2] | SMILES
1 | 100 to 1000 nM | < 100 nM | CC[C@]1(c2ccccc2)C2=CN=NC2NC2=C1C(=O)CC1(CC1)C2 (stereo not given in full) [US20250313563, Compound 790615]
2 | 1000 to 5000 nM | 100 to 1000 nM | CC[C@]1(c2cccc(Br)c2)C2=CN=NC2NC2=C1C(=O)CC(C)(C)C2 (stereo not given in full) [US20250313563, Compound 790733]
3 | 1000 to 5000 nM | 100 to 1000 nM | CC[C@]1(c2cccc(C(F)(F)F)c2)C2=CN=NC2NC2=C1C(=O)CC(C)(C)C2 (stereo not given in full) [US20250313563, Compound 790754]
4 | > 1700 nM | 100 to 1000 nM | CC[C@@]1(c2cccc(C(F)(F)F)c2)C2=CN=NC2NC2=C1C(=O)CC(C)(C)C2 (stereo not given in full) [US20250313563, Compound 790755]
5 | 100 to 1000 nM | < 100 nM | CCC1(c2cccc(-c3ccncc3)c2)C2=CN=NC2NC2=C1C(=O)CC(C)(C)C2 (stereo not given) [US20250313563, Compound 791271]
6 | 100 to 1000 nM | < 100 nM | CCC1(c2cccc(-c3cccnc3)c2)C2=CN=NC2NC2=C1C(=O)CC(C)(C)C2 (stereo not given) [US20250313563, Compound 791272]
7 | < 100 nM and 100 to 1000 nM | < 100 nM and 100 to 1000 nM | CC[C@@]1(c2ccccc2)C2=C(CC(C)(C)CC2=O)NC2N=NC(Br)=C21 (stereo not given in full) [US20250313563, Compound 792340]
8 | 100 to 1000 nM | 100 to 1000 nM | CC[C@]1(c2ccccc2)C2=C(CC(C)(C)CC2=O)NC2N=NC(Br)=C21 (stereo not given in full) [US20250313563, Compound 792341]
9 | < 100 nM | < 100 nM | CCC1(c2ccccc2)C2=C(CC(C)(C)CC2=O)NC2N=NC(C(F)(F)F)=C21 (stereo not given) [US20250313563, Compound 792343]
10 | < 100 nM and 100 to 1000 nM | < 100 nM | CC[C@]1(c2cccc(Cl)c2)C2=C(CC(C)(C)CC2=O)NC2N=NC(C(F)(F)F)=C21 (stereo not given in full) [US20250313563, Compound 801308]
11 | 100 to 1000 nM | 100 to 1000 nM | CC[C@@]1(c2cccc(Cl)c2)C2=C(CC(C)(C)CC2=O)NC2N=NC(Br)=C21 (stereo not given in full) [US20250313563, Compound 801315]
12 | < 100 nM | < 100 nM | CCC1(c2cccc(C3CC3)c2)C2=CN=NC2NC2=C1C(=O)CC(C)(C)C2 (stereo not given) [US20250313563, Compound 801316]
13 | 100 to 1000 nM | 100 to 1000 nM | CCC1(c2cccc(N3CCCC3)c2)C2=CN=NC2NC2=C1C(=O)CC(C)(C)C2 (stereo not given) [US20250313563, Compound 801317]
14 | < 100 nM | < 100 nM | CCC1(c2cccc(N(C)C(C)=O)c2)C2=CN=NC2NC2=C1C(=O)CC(C)(C)C2 (stereo not given) [US20250313563, Compound 801319]
15 | 100 to 1000 nM | 100 to 1000 nM | CCC1(c2cccc(N3CCCCC3)c2)C2=CN=NC2NC2=C1C(=O)CC(C)(C)C2 (stereo not given) [US20250313563, Compound 801320]
16 | < 100 nM | < 100 nM | CCC1(c2cccc(C(F)(F)F)c2)C2=C(CC(C)(C)CC2=O)NC2N=NC(C)=C21 (stereo not given) [US20250313563, Compound 801321]
17 | 100 to 1000 nM | < 100 nM | CCC1(c2cccc(C(C)C)c2)C2=CN=NC2NC2=C1C(=O)CC(C)(C)C2 (stereo not given) [US20250313563, Compound 801322]
18 | 100 to 1000 nM | < 100 nM | CCC1(c2cccc(COC)c2)C2=CN=NC2NC2=C1C(=O)CC(C)(C)C2 (stereo not given) [US20250313563, Compound 801323]
19 | < 100 nM | < 100 nM | CCC1(c2cccc(Br)c2)C2=C(CC(C)(C)CC2=O)NC2N=NC(C(F)(F)F)=C21 (stereo not given) [US20250313563, Compound 801324]
20 | < 100 nM | < 100 nM | CC1(C)CC(=O)C2=C(C1)NC1N=NC(Br)=C1C21CCc2c(F)cccc21 (stereo not given) [US20250313563, Compound 801358]
21 | 100 to 1000 nM | < 100 nM | CC[C@@]1(c2cccc(-c3ccccc3)c2)C2=CN=NC2NC2=C1C(=O)CC(C)(C)C2 (stereo not given in full) [US20250313563, Compound 801368]
22 | > 5000 nM | > 5000 nM | CC[C@]1(c2cccc(-c3ccncc3)c2)C2=CN=NC2NC2=C1C(=O)CC(C)(C)C2 (stereo not given in full) [US20250313563, Compound 801412]
23 | 1000 to 5000 nM | 100 to 1000 nM | CC[C@@]1(c2cccc(-c3ccncc3)c2)C2=CN=NC2NC2=C1C(=O)CC(C)(C)C2 (stereo not given in full) [US20250313563, Compound 801413]
24 | < 100 nM | < 100 nM | CCC1(c2cccc(-c3cnn(C)c3)c2)C2=C(CC(C)(C)CC2=O)NC2N=NC(C(F)(F)F)=C21 (stereo not given) [US20250313563, Compound 801445]
25 | > 1670 nM | 100 to 1000 nM | CCC1(c2cccc(OCCOC)c2)C2=CN=NC2NC2=C1C(=O)CC(C)(C)C2 (stereo not given) [US20250313563, Compound 801446]
26 | 1000 to 5000 nM | 100 to 1000 nM | CCC1(c2cccc(OC)c2)C2=CN=NC2NC2=C1C(=O)CC(C)(C)C2 (stereo not given) [US20250313563, Compound 801447]

The remaining lines, values behind:

Row | SMILES | IC50 [1] | IC50 [2]
27 | CCC1(c2cccc(C(F)(F)F)c2)C2=CN=NC2NC2=C1C(=O)CC1(CCCC1)C2 (stereo not given) [US20250313563, Compound 790617] | < 100 nM | < 100 nM
28 | CCC1(c2ccn(C)n2)C2=C(N=NC2)NC2=C1C(=O)CC(C)(C)C2 (stereo not given) [US20250313563, Compound 790619] | > 5000 nM | 1000 to 5000 nM
29 | CC1(C)CC(=O)C2=C(C1)NC1N=NC(C(F)(F)F)=C1C21CCCOc2ccccc21 (stereo not given) [US20250313563, Compound 790632] | > 5000 nM | > 5000 nM
30 | CC1(C)CC(=O)C2=C(C1)NC1=C(CN=N1)C21CCCC1 [US20250313563, Compound 790666] | < 100 nM | < 100 nM
31 | CC1(C)CC(=O)C2=C(C1)NC1=C(CN=N1)C2(C)c1cccc(-c2ccncc2)c1 (stereo not given) [US20250313563, Compound 790730] | 100 to 1000 nM | < 100 nM
32 | CC1(C)CC(=O)C2=C(C1)NC1N=NC(C(F)(F)F)=C1C21CCCc2ccccc21 (stereo not given) [US20250313563, Compound 790745] | < 100 nM | < 100 nM
33 | CC(C)(C)CC1=C2C(N=N1)NC1=C(C(=O)CC(C)(C)C1)[C@@]21CCc2c(F)cccc21 (stereo not given in full) [US20250313563, Compound 791257] | < 100 nM | < 100 nM
34 | CC[C@@]1(c2ccccc2)C2=CN=NC2NC2=C1C(=O)C[C@H](c1ccccc1)C2 (stereo not given in full) [US20250313563, Compound 791264] | > 5000 nM | 100 to 1000 nM
35 | CC[C@]1(c2ccccc2)C2=CN=NC2NC2=C1C(=O)C[C@H](c1ccccc1)C2 (stereo not given in full) [US20250313563, Compound 791265] | > 5000 nM | 1000 to 5000 nM
36 | CC[C@@]1(c2ccccc2)C2=C(N=NC2)NC2=C1C(=O)[C@H]1CC[C@@H]2C1 [US20250313563, Compound 791266] | > 5000 nM | > 5000 nM
37 | CC[C@]1(c2ccccc2)C2=C(N=NC2)NC2=C1C(=O)[C@H]1CC[C@@H]2C1 [US20250313563, Compound 791268] | > 5000 nM | > 5000 nM
38 | CC[C@@]1(c2ccccc2)C2=C(N=NC2)NC2=C1C(=O)[C@@H]1CC[C@H]2C1 [US20250313563, Compound 791269] | 100 to 1000 nM | 100 to 1000 nM
39 | CC[C@]1(c2ccccc2)C2=C(N=NC2)NC2=C1C(=O)[C@@H]1CC[C@H]2C1 [US20250313563, Compound 791270] | > 1700 nM | 100 to 1000 nM
40 | CCC1(c2cccc(C3CCOCC3)c2)C2=CN=NC2NC2=C1C(=O)CC(C)(C)C2 (stereo not given) [US20250313563, Compound 791273] | 100 to 1000 nM | < 100 nM
41 | C[C@]1(c2ccccc2)C2=C(N=NC2)NC2=C1C(=O)CC1(CCCC1)C2 [US20250313563, Compound 792338] | 100 to 1000 nM | < 100 nM
42 | C[C@@]1(c2ccccc2)C2=C(N=NC2)NC2=C1C(=O)CC1(CCCC1)C2 [US20250313563, Compound 792339] | > 5000 nM | > 1700 nM
43 | COc1cccc(C2(C)C3=C(N=NC3)NC3=C2C(=O)CC(C)(C)C3)c1 (stereo not given) [US20250313563, Compound 792342] | 100 to 1000 nM | 100 to 1000 nM
44 | CC[C@@]1(c2cccc(C(F)(F)F)c2)C2=CN=NC2NC2=C1C(=O)CC1(CCCC1)C2 (stereo not given in full) [US20250313563, Compound 801310] | > 1670 nM | 100 to 1000 nM
45 | CC[C@]1(c2cccc(C(F)(F)F)c2)C2=CN=NC2NC2=C1C(=O)CC1(CCCC1)C2 (stereo not given in full) [US20250313563, Compound 801311] | < 100 nM and 100 to 1000 nM | < 100 nM
46 | CC[C@@]1(c2cccc(C)c2)C2=CN=NC2NC2=C1C(=O)CC1(CCCC1)C2 (stereo not given in full) [US20250313563, Compound 801312] | 100 to 1000 nM | < 100 nM
47 | CC[C@]1(c2cccc(C)c2)C2=CN=NC2NC2=C1C(=O)CC1(CCCC1)C2 (stereo not given in full) [US20250313563, Compound 801313] | > 5000 nM | > 1670 nM
48 | CCC1(c2cccc(N3CCOCC3)c2)C2=CN=NC2NC2=C1C(=O)CC(C)(C)C2 (stereo not given) [US20250313563, Compound 801318] | > 1670 nM | 100 to 1000 nM
49 | CC(C)(C)CC1=C2C(N=N1)NC1=C(C(=O)CC(C)(C)C1)[C@@]21CCc2cccc(F)c21 (stereo not given in full) [US20250313563, Compound 801352] | < 100 nM | 100 to 1000 nM
50 | CC1(C)CC(=O)C2=C(C1)NC1N=NC(C(F)(F)F)=C1C21CCc2c(F)cccc21 (stereo not given) [US20250313563, Compound 801356] | < 100 nM | < 100 nM
51 | CC1(C)CC(=O)C2=C(C1)NC1=C(CN=N1)C21CCc2c(F)cccc21 (stereo not given) [US20250313563, Compound 801357] | > 1670 nM | 100 to 1000 nM
52 | CC1(C)CC(=O)C2=C(C1)NC1=C(CN=N1)[C@@]2(C)c1cccc(-c2ccccc2)c1 [US20250313563, Compound 801366] | > 5000 nM | > 5000 nM
53 | CC1(C)CC(=O)C2=C(C1)NC1=C(CN=N1)[C@]2(C)c1cccc(-c2ccccc2)c1 [US20250313563, Compound 801367] | 100 to 1000 nM | < 100 nM
54 | CCC1(c2cccc(C(F)(F)F)c2)C2=CN=NC2NC2=C1C(=O)CC(C)C2 (stereo not given) [US20250313563, Compound 801397] | 100 to 1000 nM | < 100 nM
55 | CCC1(c2ccccc2)C2=C(N=NC2)NC2=C1C(=O)CSC2 (stereo not given) [US20250313563, Compound 801406] | > 5000 nM | 1000 to 5000 nM
